Measured values published in patent publication US8404679B2, “Pyrrolidine derivatives as NK2 receptor antagonists” (Hoffmann-La Roche Inc., priority 2008, dated 2013).

Biological target: T1, human NK2 receptor (Homo sapiens, UniProt P21452)
T1 construct: purchased Perkin Elmer biosignal Inc. 6110510
T1 sequence (P21452 1-398): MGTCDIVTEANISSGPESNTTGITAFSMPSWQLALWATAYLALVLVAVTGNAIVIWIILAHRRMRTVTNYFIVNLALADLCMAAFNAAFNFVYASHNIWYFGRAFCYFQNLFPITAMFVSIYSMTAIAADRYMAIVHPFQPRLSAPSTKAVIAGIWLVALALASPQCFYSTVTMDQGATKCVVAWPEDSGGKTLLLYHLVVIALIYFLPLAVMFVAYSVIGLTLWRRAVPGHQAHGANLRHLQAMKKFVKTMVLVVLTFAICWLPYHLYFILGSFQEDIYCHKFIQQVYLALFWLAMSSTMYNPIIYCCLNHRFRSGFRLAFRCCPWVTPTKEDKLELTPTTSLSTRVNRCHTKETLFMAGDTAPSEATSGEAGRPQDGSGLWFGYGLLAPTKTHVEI
Experiment: [3H]SR48968 competition binding assay
Details: [3H]SR48968 displacement, membranes of CHO cells stably expressing recombinant human NK2 receptor; Ki from IC50 by Cheng-Prussoff
Procedure: [^3H]SR48968 Competition Binding Assay
hNK2 receptor binding experiment were performed using [^3H]SR48968 (Catalog No. TRK398, specific activity: 27.0 Ci/mmol, Amersham, GE Healthcare UK limited, Buckinghamshire, UK) and membrane isolated from CHO cells stably expressing recombinant human NK2 receptor (product No. 6110510, Perkin Elmer biosignal Inc., Shelton, Conn., USA). After thawing, the membrane homogenates were centrifuged at 48,000×g for 10 min at 4° C., the pellets were resuspended in the 50 mM Tris-HCl, 3 mM MnCl2, 4 μg/mL Chymostatin, 0.04% BSA binding buffer at pH 7.4 to a final assay concentration of 6.5 μg protein/well. For inhibition experiments, membranes were incubated with [^3H]SR48968 at a concentration equal to KD value of radioligand and 10 concentrations of the inhibitory compound (0.0003-10 μM) (in a total reaction volume of 500 μl) for 75 min at room temperature (RT). At the end of the incubation, membranes were filtered onto unitfilter (96-well white microplate with bonded GF/C filter preincubated 1 h in 0.3% polyethylenimine, Packard BioScience, Meriden, Conn.) with a Filtermate 196 harvester (Packard BioScience) and washed 4 times with ice-cold 50 mM Tris-HCl, pH 7.4 buffer. Nonspecific binding was measured in the presence of 10 μM 1-{2-[(R)-3-(3,4-dichloro-phenyl)-1-(3,4,5-trimethoxy-benzoyl)-pyrrolidin-3-yl]-ethyl}-4-phenyl-piperidine-4-carboxylic acid amide. The radioactivity on the filter was counted (5 min) on a Packard Top-count microplate scintillation counter with quenching correction after addition of 45 μl of microscint 40 (Canberra Packard S. A., Zürich, Switzerland) and shaking for 1 h. Inhibition curves were fitted according to the Hill equation: y=100/(1+(x/IC50)^nH), where nH=slope factor using Excel-fit 4 software (Microsoft). IC50 values were derived from the inhibition curve and the affinity constant (Ki) values were calculated using the Cheng-Prussoff equation Ki=IC50/(1+[L]/KD) where [L] was the concentration of radioligand and KD was its dissociation constant at the receptor, derived from the saturation isotherm.

Compound	Ki [nM]
COc1ccc(C(=O)N(C)[C@@H]2CN(C(=O)c3cc(C)cc(C)c3)C[C@H]2c2ccc(Cl)c(Cl)c2)cc1C(F)(F)F (racemic) [Example 56, rac-N-[(3S,4R)-4-(3,4-Dichloro-phenyl)-1-(3,5-dimethyl-benzoyl)-pyrrolidin-3-yl]-4-methoxy-N-methyl-3-trifluoromethyl-benzamide]	9.52
CN(C(=O)c1cc(Cl)ccn1)[C@@H]1CN(C(=O)c2ccc(C#N)cc2)C[C@H]1c1ccc(Cl)c(Cl)c1 (racemic) [Example 59, rac-4-Chloro-pyridine-2-carboxylic acid [(3S,4R)-1-(4-cyano-benzoyl)-4-(3,4-dichloro-phenyl)-pyrrolidin-3-yl]-methyl-amide]	12.8
CCOCc1ccc(C(=O)N(C)[C@@H]2CN(C(=O)c3ccc(C#N)cc3)C[C@H]2c2ccc(Cl)c(Cl)c2)nc1 (racemic) [Example 65, rac-5-Ethoxymethyl-pyridine-2-carboxylic acid [(3S,4R)-1-(4-cyano-benzoyl)-4-(3,4-dichloro-phenyl)-pyrrolidin-3-yl]-methyl-amide]	30.2
Cc1cc(Cl)cc(C(=O)N(C)[C@@H]2CN(C(=O)c3ccc(C#N)cc3)C[C@H]2c2ccc(Cl)c(Cl)c2)n1 (racemic) [Example 66, rac-4-Chloro-6-methyl-pyridine-2-carboxylic acid [(3S,4R)-1-(4-cyano-benzoyl)-4-(3,4-dichloro-phenyl)-pyrrolidin-3-yl]-methyl-amide]	49.8
COc1cc(C(=O)N(C)[C@@H]2CN(C(=O)c3ccc(C#N)cc3)C[C@H]2c2ccc(Cl)c(Cl)c2)nc2ccccc12 (racemic) [Example 67, rac-4-Methoxy-quinoline-2-carboxylic acid [(3S,4R)-1-(4-cyano-benzoyl)-4-(3,4-dichloro-phenyl)-pyrrolidin-3-yl]-methyl-amide]	52.9
CCc1cc(Cl)cc(C(=O)N(C)[C@@H]2CN(C(=O)c3ccc(C#N)cc3)C[C@H]2c2ccc(Cl)c(Cl)c2)n1 (racemic) [Example 68, rac-4-Chloro-6-ethyl-pyridine-2-carboxylic acid [(3S,4R)-1-(4-cyano-benzoyl)-4-(3,4-dichloro-phenyl)-pyrrolidin-3-yl]-methyl-amide]	74.3
CN(C(=O)c1ccc(Cl)cn1)[C@@H]1CN(C(=O)c2ccc(C#N)cc2)C[C@H]1c1ccc(Cl)c(Cl)c1 (racemic) [Example 69, rac-5-Chloro-pyridine-2-carboxylic acid [(3S,4R)-1-(4-cyano-benzoyl)-4-(3,4-dichloro-phenyl)-pyrrolidin-3-yl]-methyl-amide]	23.3
CN(C(=O)c1ccc(C#N)cn1)[C@@H]1CN(C(=O)c2ccc(C#N)cc2)C[C@H]1c1ccc(Cl)c(Cl)c1 (racemic) [Example 70, rac-5-Cyano-pyridine-2-carboxylic acid [(3S,4R)-1-(4-cyano-benzoyl)-4-(3,4-dichloro-phenyl)-pyrrolidin-3-yl]-methyl-amide]	39.7
COc1nc(C(=O)N(C)[C@@H]2CN(C(=O)c3ccc(C#N)cc3)C[C@H]2c2ccc(Cl)c(Cl)c2)ccc1C#N (racemic) [Example 71, rac-5-Cyano-6-methoxy-pyridine-2-carboxylic acid [(3S,4R)-1-(4-cyano-benzoyl)-4-(3,4-dichloro-phenyl)-pyrrolidin-3-yl]-methyl-amide]	34.4

Compounds with a lower Ki, results first:

Ki [nM]	Compound
6.3	COc1ccc(C(=O)N(C)[C@@H]2CN(C(=O)c3ccc(C(F)(F)F)cc3)C[C@H]2c2ccc(Cl)c(Cl)c2)cc1C(F)(F)F (racemic) [Example 50, rac-N-[(3S,4R)-4-(3,4-Dichloro-phenyl)-1-(4-trifluoromethyl-benzoyl)-pyrrolidin-3-yl]-4-methoxy-N-methyl-3-trifluoromethyl-benzamide]
3	COc1ccc(C(=O)N(C)[C@@H]2CN(C(=O)c3ccncc3)C[C@H]2c2ccc(Cl)c(Cl)c2)cc1C(F)(F)F (racemic) [Example 51, rac-N-[(3S,4R)-4-(3,4-Dichloro-phenyl)-1-(pyridine-4-carbonyl)-pyrrolidin-3-yl]-4-methoxy-N-methyl-3-trifluoromethyl-benzamide]
3.72	COc1ccc(C(=O)N(C)[C@@H]2CN(C(=O)c3cc(Cl)nc(Cl)c3)C[C@H]2c2ccc(Cl)c(Cl)c2)cc1C(F)(F)F (racemic) [Example 52, rac-N-[(3S,4R)-4-(3,4-Dichloro-phenyl)-1-(2,6-dichloro-pyridine-4-carbonyl)-pyrrolidin-3-yl]-4-methoxy-N-methyl-3-trifluoromethyl-benzamide]
2.91	COc1ccc(C(=O)N(C)[C@@H]2CN(C(=O)c3ccc(OC(F)(F)F)cc3)C[C@H]2c2ccc(Cl)c(Cl)c2)cc1C(F)(F)F (racemic) [Example 53, rac-N-[(3S,4R)-4-(3,4-Dichloro-phenyl)-1-(4-trifluoromethoxy-benzoyl)-pyrrolidin-3-yl]-4-methoxy-N-methyl-3-trifluoromethyl-benzamide]
3.81	COc1ccc(C(=O)N(C)[C@@H]2CN(C(=O)c3cccc(S(C)(=O)=O)c3)C[C@H]2c2ccc(Cl)c(Cl)c2)cc1C(F)(F)F (racemic) [Example 54, rac-N-[(3S,4R)-4-(3,4-Dichloro-phenyl)-1-(3-methanesulfonyl-benzoyl)-pyrrolidin-3-yl]-4-methoxy-N-methyl-3-trifluoromethyl-benzamide]
2.06	COc1ccc(C(=O)N2C[C@@H](N(C)C(=O)c3ccc(OC)c(C(F)(F)F)c3)[C@H](c3ccc(Cl)c(Cl)c3)C2)cc1C (racemic) [Example 55, rac-N-[(3S,4R)-4-(3,4-Dichloro-phenyl)-1-(4-methoxy-3-methyl-benzoyl)-pyrrolidin-3-yl]-4-methoxy-N-methyl-3-trifluoromethyl-benzamide]
1.55	COc1ccc(C(=O)N(C)[C@@H]2CN(C(=O)c3ccc(C(C)=O)cc3)C[C@H]2c2ccc(Cl)c(Cl)c2)cc1C(F)(F)F (racemic) [Example 57, rac-N-[(3S,4R)-1-(4-Acetyl-benzoyl)-4-(3,4-dichloro-phenyl)-pyrrolidin-3-yl]-4-methoxy-N-methyl-3-trifluoromethyl-benzamide]
8.52	COc1ccc(C(=O)N(C)[C@@H]2CN(C(=O)c3cc(C)n(C)n3)C[C@H]2c2ccc(Cl)c(Cl)c2)cc1C(F)(F)F (racemic) [Example 58, rac-N-[(3S,4R)-4-(3,4-Dichloro-phenyl)-1-(1,5-dimethyl-1H-pyrazole-3-carbonyl)-pyrrolidin-3-yl]-4-methoxy-N-methyl-3-trifluoromethyl-benzamide]
2.64	Cc1ccnc(C(=O)N(C)[C@@H]2CN(C(=O)c3ccc(C#N)cc3)C[C@H]2c2ccc(Cl)c(Cl)c2)c1 (racemic) [Example 63, rac-4-Methyl-pyridine-2-carboxylic acid [(3S,4R)-1-(4-cyano-benzoyl)-4-(3,4-dichloro-phenyl)-pyrrolidin-3-yl]-methyl-amide]
0.58	CN(C(=O)c1ccc(Cl)c(C(F)(F)F)c1)[C@@H]1CN(C(=O)c2ccc(C#N)cc2)C[C@H]1c1ccc(Cl)c(Cl)c1 (racemic) [Example 72, rac-4-Chloro-N-[(3S,4R)-1-(4-cyano-benzoyl)-4-(3,4-dichloro-phenyl)-pyrrolidin-3-yl]-N-methyl-3-trifluoromethyl-benzamide]
